Source: the NIST ThermoML archive (doi:10.1016/j.fluid.2013.05.016)
± gives the expanded uncertainty stated by the source.

Details: Liquid; for mass density: 298.2 K, 101.33 kPa, Vibrating tube method; for vapor or sublimation pressure / Normal boiling temperature: Ebulliometric method (Recirculating still)

SMILES	mass density	vapor or sublimation pressure (371.4 K)	Normal boiling temperature	vapor or sublimation pressure (423.8 K)	vapor or sublimation pressure (353.3 K)	vapor or sublimation pressure (417.5 K)	vapor or sublimation pressure (383.4 K)
Cc1ccccc1C [1,2-dimethylbenzene]	875.66 ± 0.24 kg/m3		144.4 ± 1 °C			101.3 ± 1.1 kPa	
c1ccccc1 [benzene]	873.66 ± 0.24 kg/m3		80.2 ± 1 °C		101.3 ± 1.1 kPa		
Cc1ccccc1 [toluene]	862.18 ± 0.24 kg/m3		110.2 ± 1 °C				101.3 ± 1.1 kPa

Now from value to compound, other results behind:

mass density	vapor or sublimation pressure (371.4 K)	Normal boiling temperature	vapor or sublimation pressure (423.8 K)	vapor or sublimation pressure (353.3 K)	SMILES	vapor or sublimation pressure (417.5 K)	vapor or sublimation pressure (383.4 K)
679.52 ± 0.24 kg/m3	101.3 ± 1.1 kPa	98.2 ± 1 °C			CCCCCCC [heptane]		
714.07 ± 0.24 kg/m3		150.7 ± 1 °C	101.3 ± 1.1 kPa		CCCCCCCCC [nonane]		
